The record followed here is US5922717A, “Piperazine derivatives, medicaments comprising these compounds, their use and processes for their preparation” (priority 1994, dated 1999).

One series has as its system Platelet aggregation. Nature of the series: Inhibition of collagen-induced platelet aggregation (method of Born and Cross) in platelet-rich plasma. Conditions: 10 minutes at 37° C., 50% change in optical density. The series is classed as cell-based, human (healthy test persons). The protocol: 2. Antithrombotic Action: Method Platelet aggregation is measured in platelet-rich plasma of healthy test persons by the method of Born and Cross (J. Physiol. 170, 397 (1964)). To inhibit coagulation, 3.14% sodium citrate is added to the blood in a volume ratio of 1:10. Collagen-induced aggregation The course of the decrease in the optical density of the platelet suspension after addition of the substance which induces aggregation is measured and recorded photometrically. The rate of aggregation is concluded from the angle of inclination of the density curve. The point on the curve at which the highest light transmission exists is used to calculate the "optical density". The amount of collagen is as low as possible, but is enough to result in a reaction curve which proceeds irreversibly. Commercially available collagen from Hormonchemie, Munich is used. Before addition of the collagen, the plasma is incubated with the substance for in each case 10 minutes at 37° C. An EC50 which is based on a 50% change in "optical density" in the sense of inhibition of aggregation is determined graphically from the measurement figures obtained.

In another series the test system is human platelets. Nature of the series: Inhibition of the binding of 3H-BIBU 52 to human platelets (fibrinogen binding test). Conditions: 3H-BIBU 52 5 nM, human platelets in plasma, room temperature, 20 minutes. On the procedure:
1. Inhibition of the Binding of ^3 H-BIBU 52 to Human Platelets:
A suspension of human platelets in plasma is incubated with ^3 H-BIBU 52 [=(3S,5S)-5-[(4'-amidino-4-biphenylyl)-oxymethyl]-3-[(carboxyl)methyl]-2-pyrrolidinone[3-^3 H-4-biphenylyl]], which replaces the ligand ^125 I-fibrinogen known from the literature, (see DE-A-4,214-245) and varius concentrations of the substance to be tested. The free and bound ligand are separated by centrigation and determined quantitatively by scintillation counting. The inhibition of ^3 H-BIBU 52 binding by the test substance is determined from the measurement values.
For this, donor blood is withdrawn form an anticubital vein and anticoagulated with trisodium citrate (final concentration 13 mM). The blood is centriged at 170×g for 10 minutes and the supernatant platelet-rich plasma (PRP) is removed. The residual blood is centriged off under severe conditions once more to isolate the plasma. The PRP is diluted 1:10 with autologous plasma. 750 μl are incubated with 50 μl of physiological saline solution, 100 μl of test substance solution, 50 μl of 14C-sucrose (3,700 Bq) and 50 μl of ^3 H-BIBU 52 (final centration: 5 nM) at room temperature for 20 minutes. To measure the non-specific binding, 100 μl of BIBU 52 (final concentration: […]) are employed instead of the test substance. The samples are centrifuged at 10,000×g for 20 seconds and the supernatant is removed. 100 μl of this are measured for determination of the free ligand. The pellet is dissolved in 500 μl of 0.2N NaOH, […] of scintillator and 25 μl of 5N HCl are added to 450 μl and the sample is measured. The residual plasma which still remains in the pellet is determined from the ^14 C content and the bound ligand is determined from the ^3 H measurement. After subtraction of the non-specific binding, the pellet activity is plotted against the concentration f the test substance and the concentration for 50% inhibition of binding is determined.

Details of series [1]: species or system mice. The following applies: mouse, in vivo, iv, 200 mg/kg.

Where a name gives a salt, the structure may show the parent alone.

Take `CC(C)OC(=O)COc1ccc(NC(=O)N2CCN(C3CCNCC3)CC2)cc1` [4(6), Isopropyl [4-[[4-(4-piperidinyl)-piperazin-1-yl]carbonylamino]-phenoxy]acetate dihydrochloride]: in the series on Platelet aggregation (Homo sapiens, 10 min), the EC50 is 280 nM. In the series on human platelets, this compound had an IC50 of 13000 nM.

The compound `CCOC(=O)COc1ccc(NC(=O)N2CCN(C3CCNCC3)CC2)cc1` [4(13), Ethyl [4-[[4-(4-piperidinyl)-piperazin-1-yl]carbonylamino]-phenoxy]acetate dihydrochloride] showed an EC50 in the series with Platelet aggregation (Homo sapiens, 10 min) of 130 nM. This compound also returned an IC50 in the series with human platelets of 310 nM.

Consider `O=C(O)CC[C@H]1CC[C@H](NC(=O)N2CCN(C3CCNCC3)CC2)CC1` [Example 1(1), [3-[4-trans-[4-(4-Piperidinyl)-piperazin-1-yl]carbonylamino]cyclohexyl]propionic acid dihydrochloride], for which, in the series on Platelet aggregation (Homo sapiens, 10 min), a half-maximal response (EC50) required 95 nM. The compound also registered an IC50 in the series with human platelets of 76 nM.

The compound `O=C(O)CCCC1CCN(C(=O)N2CCN(C3CCNCC3)CC2)CC1` [Example 1(13), N-[[4-(4-Piperidinyl)-piperazin-1-yl]-carbonyl]-4-(4-piperidinyl)-butyric acid dihydrochloride] gave an EC50 in the series on Platelet aggregation (Homo sapiens, 10 min) of 320 nM. In addition, in the series on human platelets, the 50% inhibitory concentration (IC50) amounted to 270 nM.

As for `O=C(O)COc1ccc(C(=O)CN2CCN(C3CCNCC3)CC2)cc1` [Example 1(19), [4-[[4-(4-Piperidinyl)-piperazin-1-yl]acetyl]phenoxyl-acetic acid trihydrochloride], a half-maximal response in the series with Platelet aggregation (Homo sapiens, 10 min) (EC50) required 390 nM. In the series with human platelets, this compound yielded an IC50 of 200 nM.

Turning to `O=C(O)COc1ccc(NC(=O)N2CCN(C3CCNCC3)CC2)cc1` [Example 1(23), [4-[[4-(4-Piperidinyl)-piperazin-1-yl]carbonylaminolphenoxyl-acetic acid dihydrochloride], the toxic side effects entry in series [1] is “no toxic side effects were observed”. In addition, in the series on Platelet aggregation (Homo sapiens, 10 min), the EC50 was found to be 98 nM. Moreover, the IC50 in the series on human platelets stood at 67 nM.

In the series on Platelet aggregation (Homo sapiens, 10 min), `O=C(O)CCOC1CCN(C(=O)N2CCN(C3CCNCC3)CC2)CC1` [Example 1(30), N-[[4-(4-Piperidinyl)-piperazin-1-yl]carbonyl]-3-(piperidin-4-yloxy)-propionic acid dihydrochloride] displayed an EC50 of 640 nM. The compound further displayed an IC50 in the series with human platelets of 210 nM.

In turn, `O=C(CCN1CCN(C2CCNCC2)CC1)N[C@H]1CC[C@H](C(=O)O)CC1` [Example 1, [4-trans-[3-[4-(4-Piperidinyl)-piperazin-1-yl]propionyl]-amino]cyclohexanecarboxylic acid dihydrochloride] had an EC50 in the series with Platelet aggregation (Homo sapiens, 10 min) of 240 nM. In the series on human platelets, this compound displayed an IC50 of 510 nM.

Compound `COC(=O)COc1ccc(C(=O)CN2CCN(C3CCNCC3)CC2)cc1` [Example 2(11), Methyl [4-[[4-(4-piperidinyl)-piperazin-1-yl]acetyl]phenoxyl-acetatetrihydrochloride] had an EC50 with Platelet aggregation (Homo sapiens, 10 min) of 420 nM. Also, the IC50 with human platelets is 33000 nM.

Consider `CCOC(=O)CCOC1CCN(C(=O)N2CCN(C3CCNCC3)CC2)CC1` [Example 2(15), Ethyl N-[[4-(4-piperidinyl)-piperazin-1-yl]-carbonyl]-3-(piperidin-4-yloxy)-propionate dihydrochloride], for which, in the series on Platelet aggregation (Homo sapiens, 10 min), the EC50 is more than 10000 nM. In the series on human platelets, this compound came in with an IC50 of 38000 nM.

Consider `COC(=O)COc1ccc(NC(=O)N2CCN(C3CCNCC3)CC2)cc1` [Example 3(7), Methyl [4-[[4-(4-piperidinyl)-piperazin-1-yl]carbonylamino]phenoxy]acetate dihydrochloride], for which a half-maximal effect with Platelet aggregation (Homo sapiens, 10 min) (EC50) was put at 110 nM. This compound came in with an IC50 with human platelets of 270 nM.

Regarding `CC(C)(C)OC(=O)COc1ccc(NC(=O)N2CCN(C3CCNCC3)CC2)cc1` [Example 3(11), tert-Butyl [4-[[4-(4-piperidinyl)-piperazin-1-yl]carbonylamino]-phenoxy]acetate dihydrochloride], in the series with Platelet aggregation (Homo sapiens, 10 min), the EC50 is 980 nM. The IC50 in the series on human platelets was found to be 630 nM.

`CC(C)COC(=O)COc1ccc(NC(=O)N2CCN(C3CCNCC3)CC2)cc1` [Example 4(7), Isobutyl [4-[[4-(4-piperidinyl)-piperazin-1-yl]carbonylamino]-phenoxy]acetate dihydrochloride] yielded an EC50 in the series with Platelet aggregation (Homo sapiens, 10 min) of 100 nM. The compound further registered an IC50 with human platelets of 18000 nM.

Compound `CC(C)(C)COC(=O)COc1ccc(NC(=O)N2CCN(C3CCNCC3)CC2)cc1` [Example 4(8), Neopentyl [4-[[4-(4-piperidinyl)-piperazin-1-yl]carbonylamino]-phenoxy]acetate dihydrochloride] gave an EC50 with Platelet aggregation (Homo sapiens, 10 min) of 120 nM. Moreover, the IC50 with human platelets was determined as 170 nM.

In the series on Platelet aggregation (Homo sapiens, 10 min), `O=C(COc1ccc(NC(=O)N2CCN(C3CCNCC3)CC2)cc1)OC1CCCC1` [Example 4(9), Cyclopentyl [4-[[4-(4-piperidinyl)-piperazin-1-yl]carbonylamino]-phenoxy]acetate dihydrochloride] returned an EC50 of 160 nM. In addition, the IC50 in the series on human platelets was 4700 nM.

Consider `O=C(COc1ccc(NC(=O)N2CCN(C3CCNCC3)CC2)cc1)OC1CCCCCC1` [Example 4(10), Cycloheptyl [4-[[4-(4-piperidinyl)-piperazin-1-yl]carbonylamino]-phenoxy]acetate dihydrochloride], for which the EC50 in the series on Platelet aggregation (Homo sapiens, 10 min) came out at 91 nM. Moreover, the IC50 in the series on human platelets came to 590 nM.

In turn, `CCCCOC(=O)COc1ccc(NC(=O)N2CCN(C3CCNCC3)CC2)cc1` [Example 4(11), Butyl [4-[[4-(4-piperidinyl)-piperazin-1-yl]carbonylamino]-phenoxy]acetate dihydrochloride] displayed an EC50 in the series on Platelet aggregation (Homo sapiens, 10 min) of 110 nM. This compound returned an IC50 in the series on human platelets of 19000 nM.

Compound `O=C(COc1ccc(NC(=O)N2CCN(C3CCNCC3)CC2)cc1)OC1CCCCC1` [Example 4(12), Cyclohexyl [4-[[4-(4-piperidinyl)-piperazin-1-yl]carbonylamino]-phenoxy]acetate dihydrochloride] displayed a concentration giving a half-maximal response (EC50) with Platelet aggregation (Homo sapiens, 10 min) of 290 nM.

In the series with Platelet aggregation (Homo sapiens, 10 min), `O=C(CC[C@H]1CC[C@H](NC(=O)N2CCN(C3CCNCC3)CC2)CC1)OC1CCCCC1` [Example 4, Cyclohexyl 3-[4-trans-[[4-(4-piperidinyl)-piperazin-1-yl]carbonylamino]-cyclohexylpropionatedihydrochloride] displayed an EC50 of 360 nM. Further, the IC50 with human platelets was 270 nM.

In turn, `O=C(O)CN1CCC(OCC(=O)N2CCN(C3CCNCC3)CC2)CC1` [Example 22(8), [4-[[[4-(piperidin-4-yl)-piperazin-1-yl]-carbonyl]-methyloxy]-piperidin-1-yl]-acetic acid] returned an EC50 with Platelet aggregation (Homo sapiens, 10 min) of 100 nM. The half-maximal inhibitory concentration (IC50) with human platelets stood at 27 nM.

Consider `O=C(O)CN1CCC(CCC(=O)N2CCN(C3CCNCC3)CC2)CC1` [Example 24(1), [4-[2-[[4-(Piperidin-4-yl)-piperazin-1-yl]-carbonyl]-ethyl]-piperidin-1-yl]-acetic acid trihydrochloride], for which it took 94 nM to reach a half-maximal effect in the series on Platelet aggregation (Homo sapiens, 10 min) (EC50). The same compound displayed a half-inhibitory concentration (IC50) in the series on human platelets of 12 nM.

The compound “N-[4-[[4-(4-Piperidinyl)-piperazin-1-yl]carbonyl]piperi-dinyl]-β-alanine trihydrochloride [Example 1(5)]” had an EC50 in the series on Platelet aggregation of 250 nM. In the series on human platelets, this compound came in with an IC50 of 78 nM.
